# Experiments:
# IFN-γ mRNA in the kidney = assay: IFN-γ mRNA expression in the kidney of SLE model mice (Real-Time RT-PCR); assay type: in vivo, NZB/WF1 mice; settings: Drug A 30 mg/kg twice a day, Drug B 3 mg/kg once a day, oral, 10 weeks; for IFN-γ Relative index: kidney mRNA relative to control group = 1.000; for IFN-γ mRNA expression level (%): kidney, female NZB/WF1 mice, control = 100%, mean ± standard error of 10 to 11 mice
# Experimental: (§1) Actions of suppressing the expression of disease-associated genes in the kidney by the administration of 2-benzyl-5-(4-chlorophenyl)-6-[4-(methylthio)phenyl]-2H-pyridazine-3-one (hereinafter referred to as Drug A) and prednisolone (hereinafter referred to as Drug B) in combination and the administration of each drug alone were evaluated by using NZB×NZW (NZB/W)F1 mice widely known as spontaneous SLE models.
# (§2) Female NZB/WF1 mice (Japan SLC, Inc.) were used as test animals.
# (§3) The bodyweight of 20-week-old NZB/WF1 mice was measured. By using the body weight as an index, the mice were divided into groups through one-parameter-based block randomization so that each group becomes uniform.
# (§4) Drug administration was conducted from the day after the grouping to 10 weeks thereafter. To a group for sole administration of Drug A, a dose of 30 mg/kg was orally administered, twice a day, in the morning (9:00 to 11:00) and in the evening (15:30 to 17:30). Further, to a group for sole administration of Drug B, a dose of 3 mg/kg was orally administered, once a day, in the daytime (11:30 to 13:30). On the other hand, to a group for combined administration of Drug A and Drug B, 30 mg/kg of Drug A was orally administered in the morning (9:00 to 11:00) and in the evening (15:30 to 17:30), and 3 mg/kg of Drug B was orally administered in the daytime (11:30 to 13:30).
# (§5) 10 weeks after the grouping (at the time of 30 weeks old), the kidney was excised from each individual and horizontally divided into two portions. After that, the kidney was subjected to RNase inactivation treatment that involves immersing the kidney in RNAlater (manufactured by QIAGEN GmbH) at 4° C. for 24 hours. […] The mRNA expression levels of SLE-associated genes (IFN-y (probe No.: Mm00801778_m1), TNF-α (probe No.: Mm00443258_m1), IL-1β (probe No.: Mm00434228_m1), BAFF (probe No.: Mm00446347_m1), IFIT1 (probe No.: Mm00515153_m1), and IP-10 (probe No.: Mm00445235_m1)) were determined by using ABI PRISM (registered trademark) 7900 Sequence Detection System (manufactured by Applied Biosystems, Inc.) and TaqMan (registered trademark) Gene Expression Assays (manufactured by Applied Biosystems, Inc.) by Real-Time RT-PCR method. […]
# (§6) Tables 1 to 6 and FIGS. 1 to 6 each show the mRNA expression levels of IFN-γ (Table 1, FIG. 1), TNF-α (Table 2, FIG. 2), IL-1β (Table 3, FIG. 3), BAFF (Table 4, FIG. 4), IFIT1 (Table 5, FIG. 5), and IP-10 (Table 6, FIG. 6) in the kidney in a control group, a group for sole administration of 30 mg/kg of Drug A, a group for sole administration of 3 mg/kg of Drug B, and a group for combined administration of both Drugs. […] The mRNA expression level is expressed as mean±standard error of 10 to 11 mice in each group. […]
# BAFF mRNA in the kidney = assay: BAFF mRNA expression in the kidney of SLE model mice (Real-Time RT-PCR); assay type: in vivo, NZB/WF1 mice; settings: Drug A 30 mg/kg twice a day, Drug B 3 mg/kg once a day, oral, 10 weeks; for BAFF Relative index: kidney mRNA relative to control group = 1.000; for BAFF mRNA expression level (%): kidney, female NZB/WF1 mice, control = 100%, mean ± standard error of 10 to 11 mice
# Experimental: as §1, §2, §3, §4, §5, §6
# IL-1β mRNA in the kidney = assay: IL-1β mRNA expression in the kidney of SLE model mice (Real-Time RT-PCR); assay type: in vivo, NZB/WF1 mice; settings: Drug A 30 mg/kg twice a day, Drug B 3 mg/kg once a day, oral, 10 weeks; for IL-1β Relative index: kidney mRNA relative to control group = 1.000; for IL-1β mRNA expression level (%): kidney, female NZB/WF1 mice, control = 100%, mean ± standard error of 10 to 11 mice
# Experimental: as §1, §2, §3, §4, §5, §6
# [1] = tested on: SLE-associated genes in the kidney; assay: Expression of SLE-associated genes in the kidney of SLE model mice, overall statement; assay type: in vivo; settings: NZB/WF1 mice, oral, 10 weeks, Drug A 30 mg/kg twice a day, Drug B 3 mg/kg once a day, Dunnett's test vs control
# Experimental: as §1, §2, §3, §4
# as §5, with “portions.” for “portions. After that, the kidney was subjected to RNase inactivation treatment that involves immersing the kidney in RNAlater (manufactured by QIAGEN GmbH) at 4° C. for 24 hours.”
# TNF-α mRNA in the kidney = assay: TNF-α mRNA expression in the kidney of SLE model mice (Real-Time RT-PCR); assay type: in vivo, NZB/WF1 mice; settings: Drug A 30 mg/kg twice a day, Drug B 3 mg/kg once a day, oral, 10 weeks; for TNF-α Relative index: kidney mRNA relative to control group = 1.000; for TNF-α mRNA expression level (%): kidney, female NZB/WF1 mice, control = 100%, mean ± standard error of 10 to 11 mice
# Experimental: as §1, §2, §3, §4, §5, §6
# IP-10 mRNA in the kidney = assay: IP-10 mRNA expression in the kidney of SLE model mice (Real-Time RT-PCR); assay type: in vivo, NZB/WF1 mice; settings: Drug A 30 mg/kg twice a day, Drug B 3 mg/kg once a day, oral, 10 weeks; for IP-10 Relative index: kidney mRNA relative to control group = 1.000; for IP-10 mRNA expression level (%): kidney, female NZB/WF1 mice, control = 100%, mean ± standard error of 10 to 11 mice
# Experimental: as §1, §2, §3, §4, §5, §6
# IFIT1 mRNA in the kidney = assay: IFIT1 mRNA expression in the kidney of SLE model mice (Real-Time RT-PCR); assay type: in vivo, NZB/WF1 mice; settings: Drug A 30 mg/kg twice a day, Drug B 3 mg/kg once a day, oral, 10 weeks; for IFIT1 Relative index: kidney mRNA relative to control group = 1.000; for IFIT1 mRNA expression level (%): kidney, female NZB/WF1 mice, control = 100%, mean ± standard error of 10 to 11 mice
# Experimental: as §1, §2, §3, §4, §5, §6
compound,measurement,setting,value
"C[C@]12C=CC(=O)C=C1CC[C@@H]1[C@@H]2[C@@H](O)C[C@@]2(C)[C@H]1CC[C@]2(O)C(=O)CO [Drug B, prednisolone, reference compound]",IFN-γ Relative index,IFN-γ mRNA in the kidney,0.360
same,IFN-γ mRNA expression level (%),IFN-γ mRNA in the kidney,36.0 ± 13.1%
same,BAFF Relative index,BAFF mRNA in the kidney,0.722
same,BAFF mRNA expression level (%),BAFF mRNA in the kidney,72.2 ± 13.1%
same,IL-1β Relative index,IL-1β mRNA in the kidney,0.661
same,IL-1β mRNA expression level (%),IL-1β mRNA in the kidney,66.1 ± 21.9%
same,action on the expression of SLE-associated genes in the kidney (in words),[1],exhibited a tendency to suppress the expression of any gene
same,TNF-α Relative index,TNF-α mRNA in the kidney,0.522
same,TNF-α mRNA expression level (%),TNF-α mRNA in the kidney,52.2 ± 13.2%
same,IP-10 Relative index,IP-10 mRNA in the kidney,0.635
same,IP-10 mRNA expression level (%),IP-10 mRNA in the kidney,63.5 ± 9.9%
same,IFIT1 Relative index,IFIT1 mRNA in the kidney,0.786
same,IFIT1 mRNA expression level (%),IFIT1 mRNA in the kidney,78.6 ± 15.0%
"CSc1ccc(-c2nn(Cc3ccccc3)c(=O)cc2-c2ccc(Cl)cc2)cc1 [Drug A, 2-benzyl-5-(4-chlorophenyl)-6-[4-(methylthio)phenyl]-2H-pyridazine-3-one]",IFN-γ Relative index,IFN-γ mRNA in the kidney,0.857
same,IFN-γ mRNA expression level (%),IFN-γ mRNA in the kidney,85.7 ± 27.1%
same,BAFF Relative index,BAFF mRNA in the kidney,1.135
same,BAFF mRNA expression level (%),BAFF mRNA in the kidney,113.5 ± 13.7%
same,IL-1β Relative index,IL-1β mRNA in the kidney,1.266
same,IL-1β mRNA expression level (%),IL-1β mRNA in the kidney,126.6 ± 50.3%
same,action on the expression of SLE-associated genes in the kidney (in words),[1],exhibited no action on the expression of SLE-associated genes in the kidney of this model or exhibited only a tendency to slightly suppress the expression
same,action on the expression of SLE-associated genes in the kidney (in words),[1]; listed as 2-benzyl-5-(4-chlorophenyl)-6-[4-(methylthio)phenyl]-2H-pyridazine-3-one,there was not confirmed a significant action of suppressing the expression of SLE-associated genes in the kidney
same,TNF-α Relative index,TNF-α mRNA in the kidney,0.634
same,TNF-α mRNA expression level (%),TNF-α mRNA in the kidney,63.4 ± 13.5%
same,IP-10 Relative index,IP-10 mRNA in the kidney,0.883
same,IP-10 mRNA expression level (%),IP-10 mRNA in the kidney,88.3 ± 18.1%
same,IFIT1 Relative index,IFIT1 mRNA in the kidney,0.721
same,IFIT1 mRNA expression level (%),IFIT1 mRNA in the kidney,72.1 ± 15.6%
